Experimental data: ChEMBL document CHEMBL1154382, “Preliminary SAR analysis of novel antiproliferative N(6),5'-bis-ureidoadenosine derivatives” (2009)

Key:
Type in all cases: functional
Conditions in all cases: values are per cent of control
[1] = test system: CCRF-CEM; test: Antiproliferative activity against human CCRF-CEM cells at 10 uM assessed as cell growth inhibition relative to control
[2] = test system: HL-60(TB); test: Antiproliferative activity against human HL-60(TB) cells at 10 uM assessed as cell growth inhibition relative to control
[3] = test system: K562; test: Antiproliferative activity against human K562 cells at 10 uM assessed as cell growth inhibition relative to control
[4] = test system: MOLT-4; test: Antiproliferative activity against human MOLT4 cells at 10 uM assessed as cell growth inhibition relative to control
[5] = Antiproliferative activity against human […] cells at 10 uM assessed as cell growth inhibition relative to control
[6] = test system: A549; test: Antiproliferative activity against human A549 cells at 10 uM assessed as cell growth inhibition relative to control
[7] = test system: EKVX; test: Antiproliferative activity against human EKVX cells at 10 uM assessed as cell growth inhibition relative to control
[8] = test system: PC-3; test: Antiproliferative activity against human PC3 cells at 10 uM assessed as cell growth inhibition relative to control
[9] = test system: HOP-62; test: Antiproliferative activity against human HOP62 cells at 10 uM assessed as cell growth inhibition relative to control
[10] = test system: HOP-92; test: Antiproliferative activity against human HOP92 cells at 10 uM assessed as cell growth inhibition relative to control
[11] = test system: NCI-H226; test: Antiproliferative activity against human NCI-H226 cells at 10 uM assessed as cell growth inhibition relative to control
[12] = test system: NCI-H23; test: Antiproliferative activity against human NCI-H23 cells at 10 uM assessed as cell growth inhibition relative to control
[13] = test system: NCI-H322M; test: Antiproliferative activity against human NCI-H322M cells at 10 uM assessed as cell growth inhibition relative to control
[14] = test system: NCI-H460; test: Antiproliferative activity against human NCI-H460 cells at 10 uM assessed as cell growth inhibition relative to control
[15] = test system: NCI-H522; test: Antiproliferative activity against human NCI-H522 cells at 10 uM assessed as cell growth inhibition relative to control
[16] = test system: COLO 205; test: Antiproliferative activity against human COLO205 cells at 10 uM assessed as cell growth inhibition relative to control
[17] = test system: HCC 2998; test: Antiproliferative activity against human HCC2998 cells at 10 uM assessed as cell growth inhibition relative to control
[18] = test system: HCT-116; test: Antiproliferative activity against human HCT116 cells at 10 uM assessed as cell growth inhibition relative to control
[19] = test system: HCT-15; test: Antiproliferative activity against human HCT15 cells at 10 uM assessed as cell growth inhibition relative to control
[20] = test system: HT-29; test: Antiproliferative activity against human HT-29 cells at 10 uM assessed as cell growth inhibition relative to control
[21] = test system: KM12; test: Antiproliferative activity against human KM12 cells at 10 uM assessed as cell growth inhibition relative to control
[22] = test system: SW-620; test: Antiproliferative activity against human SW620 cells at 10 uM assessed as cell growth inhibition relative to control
[23] = test system: LOX IMVI; test: Antiproliferative activity against human LOXIMVI cells at 10 uM assessed as cell growth inhibition relative to control
[24] = test system: Malme-3M; test: Antiproliferative activity against human MALME-3M cells at 10 uM assessed as cell growth inhibition relative to control
[25] = test system: M14; test: Antiproliferative activity against human M14 cells at 10 uM assessed as cell growth inhibition relative to control
[26] = test system: SK-MEL-2; test: Antiproliferative activity against human SK-MEL-2 cells at 10 uM assessed as cell growth inhibition relative to control
[27] = test system: SK-MEL-28; test: Antiproliferative activity against human SK-MEL-28 cells at 10 uM assessed as cell growth inhibition relative to control
[28] = test system: SK-MEL-5; test: Antiproliferative activity against human SK-MEL-5 cells at 10 uM assessed as cell growth inhibition relative to control
[29] = test system: UACC-257; test: Antiproliferative activity against human UACC257 cells at 10 uM assessed as cell growth inhibition relative to control
[30] = test system: UACC-62; test: Antiproliferative activity against human UACC62 cells at 10 uM assessed as cell growth inhibition relative to control
[31] = test system: SF-268; test: Antiproliferative activity against human SF268 cells at 10 uM assessed as cell growth inhibition relative to control
[32] = test system: SF-295; test: Antiproliferative activity against human SF295 cells at 10 uM assessed as cell growth inhibition relative to control
[33] = test system: SF-539; test: Antiproliferative activity against human SF539 cells at 10 uM assessed as cell growth inhibition relative to control
[34] = test system: SNB-19; test: Antiproliferative activity against human SNB19 cells at 10 uM assessed as cell growth inhibition relative to control
[35] = test system: SNB-75; test: Antiproliferative activity against human SNB75 cells at 10 uM assessed as cell growth inhibition relative to control
[36] = test system: U-251; test: Antiproliferative activity against human U251 cells at 10 uM assessed as cell growth inhibition relative to control
[37] = test system: IGROV-1; test: Antiproliferative activity against human IGROV1 cells at 10 uM assessed as cell growth inhibition relative to control
[38] = test system: OVCAR-3; test: Antiproliferative activity against human OVCAR-3 cells at 10 uM assessed as cell growth inhibition relative to control
[39] = test system: OVCAR-4; test: Antiproliferative activity against human OVCAR4 cells at 10 uM assessed as cell growth inhibition relative to control
[40] = test system: OVCAR-5; test: Antiproliferative activity against human OVCAR5 cells at 10 uM assessed as cell growth inhibition relative to control
[41] = test system: OVCAR-8; test: Antiproliferative activity against human OVCAR8 cells at 10 uM assessed as cell growth inhibition relative to control
[42] = test system: SK-OV-3; test: Antiproliferative activity against human SKOV3 cells at 10 uM assessed as cell growth inhibition relative to control
[43] = test system: 786-0; test: Antiproliferative activity against human 786-0 cells at 10 uM assessed as cell growth inhibition relative to control
[44] = test system: A498; test: Antiproliferative activity against human A498 cells at 10 uM assessed as cell growth inhibition relative to control
[45] = test system: ACHN; test: Antiproliferative activity against human ACHN cells at 10 uM assessed as cell growth inhibition relative to control
[46] = test system: CAKI-1; test: Antiproliferative activity against human Caki1 cells at 10 uM assessed as cell growth inhibition relative to control
[47] = test system: RXF 393; test: Antiproliferative activity against human RXF393 cells at 10 uM assessed as cell growth inhibition relative to control
[48] = test system: SN12C; test: Antiproliferative activity against human SN12C cells at 10 uM assessed as cell growth inhibition relative to control
[49] = test system: TK-10; test: Antiproliferative activity against human TK10 cells at 10 uM assessed as cell growth inhibition relative to control
[50] = test system: UO-31; test: Antiproliferative activity against human UO31 cells at 10 uM assessed as cell growth inhibition relative to control
[51] = test system: BT-549; test: Antiproliferative activity against human BT549 cells at 10 uM assessed as cell growth inhibition relative to control
[52] = Antiproliferative activity against human Hs 578T cells at 10 uM assessed as cell growth inhibition relative to control
[53] = test system: MCF7; test: Antiproliferative activity against human MCF7 cells at 10 uM assessed as cell growth inhibition relative to control
[54] = test system: MDA-MB-231; test: Antiproliferative activity against human MDA-MB-231 cells at 10 uM assessed as cell growth inhibition relative to control
[55] = test system: MDA-MB-468; test: Antiproliferative activity against human MDA-MB-468 cells at 10 uM assessed as cell growth inhibition relative to control
[56] = test system: T47D; test: Antiproliferative activity against human T47D cells at 10 uM assessed as cell growth inhibition relative to control
[57] = test system: DU-145; test: Antiproliferative activity against human DU145 cells at 10 uM assessed as cell growth inhibition relative to control

## CCOC(=O)C[C@H]1[C@@H](O[Si](C)(C)C(C)(C)C)[C@H](n2cnc3c(NC(=O)Nc4ccccc4)ncnc32)O[C@@H]1CN=[N+]=[N-]
[1]
  growth, % of control at 10 µM: 63%
[2]
  growth, % of control at 10 µM: 51%
[3]
  growth, % of control at 10 µM: 72%
[4]
  growth, % of control at 10 µM: 79%
[5]
  growth, % of control at 10 µM: 75%
[6]
  growth, % of control at 10 µM: 103%
[7]
  growth, % of control at 10 µM: 89%
[8]
  growth, % of control at 10 µM: 64%
[9]
  growth, % of control at 10 µM: 98%
[10]
  growth, % of control at 10 µM: 100%
[11]
  growth, % of control at 10 µM: 62%
[12]
  growth, % of control at 10 µM: 97%
[13]
  growth, % of control at 10 µM: 99%
[14]
  growth, % of control at 10 µM: 104%
[15]
  growth, % of control at 10 µM: 90%
[16]
  growth, % of control at 10 µM: 114%
[17]
  growth, % of control at 10 µM: 121%
[18]
  growth, % of control at 10 µM: 82%
[19]
  growth, % of control at 10 µM: 84%
[20]
  growth, % of control at 10 µM: 104%
[21]
  growth, % of control at 10 µM: 101%
[22]
  growth, % of control at 10 µM: 101%
[23]
  growth, % of control at 10 µM: 96%
[24]
  growth, % of control at 10 µM: 97%
[25]
  growth, % of control at 10 µM: 101%
[26]
  growth, % of control at 10 µM: 91%
[27]
  growth, % of control at 10 µM: 116%
[28]
  growth, % of control at 10 µM: 104%
[29]
  growth, % of control at 10 µM: 88%
[30]
  growth, % of control at 10 µM: 83%
[31]
  growth, % of control at 10 µM: 95%
[32]
  growth, % of control at 10 µM: 94%
[33]
  growth, % of control at 10 µM: 89%
[34]
  growth, % of control at 10 µM: 92%
[35]
  growth, % of control at 10 µM: 73%
[36]
  growth, % of control at 10 µM: 95%
[37]
  growth, % of control at 10 µM: 93%
[38]
  growth, % of control at 10 µM: 111%
[39]
  growth, % of control at 10 µM: 66%
[40]
  growth, % of control at 10 µM: 107%
[41]
  growth, % of control at 10 µM: 98%
[42]
  growth, % of control at 10 µM: 101%
[43]
  growth, % of control at 10 µM: 89%
[44]
  growth, % of control at 10 µM: 121%
[45]
  growth, % of control at 10 µM: 92%
[46]
  growth, % of control at 10 µM: 87%
[47]
  growth, % of control at 10 µM: 111%
[48]
  growth, % of control at 10 µM: 81%
[49]
  growth, % of control at 10 µM: 103%
[50]
  growth, % of control at 10 µM: 83%
[51]
  growth, % of control at 10 µM: 100%
[52]
  growth, % of control at 10 µM: 92%
[53]
  growth, % of control at 10 µM: 85%
[54]
  growth, % of control at 10 µM: 95%
[55]
  growth, % of control at 10 µM: 95%
[56]
  growth, % of control at 10 µM: 73%
[57]
  growth, % of control at 10 µM: 105%
